This experiment deals with T1, Human TRPV3 (Homo sapiens, UniProt Q8NET8).
T1 construct: expressed in transfected cells; host or cells: CHO cells (G-418 selected)
T1 sequence (Q8NET8 1-790): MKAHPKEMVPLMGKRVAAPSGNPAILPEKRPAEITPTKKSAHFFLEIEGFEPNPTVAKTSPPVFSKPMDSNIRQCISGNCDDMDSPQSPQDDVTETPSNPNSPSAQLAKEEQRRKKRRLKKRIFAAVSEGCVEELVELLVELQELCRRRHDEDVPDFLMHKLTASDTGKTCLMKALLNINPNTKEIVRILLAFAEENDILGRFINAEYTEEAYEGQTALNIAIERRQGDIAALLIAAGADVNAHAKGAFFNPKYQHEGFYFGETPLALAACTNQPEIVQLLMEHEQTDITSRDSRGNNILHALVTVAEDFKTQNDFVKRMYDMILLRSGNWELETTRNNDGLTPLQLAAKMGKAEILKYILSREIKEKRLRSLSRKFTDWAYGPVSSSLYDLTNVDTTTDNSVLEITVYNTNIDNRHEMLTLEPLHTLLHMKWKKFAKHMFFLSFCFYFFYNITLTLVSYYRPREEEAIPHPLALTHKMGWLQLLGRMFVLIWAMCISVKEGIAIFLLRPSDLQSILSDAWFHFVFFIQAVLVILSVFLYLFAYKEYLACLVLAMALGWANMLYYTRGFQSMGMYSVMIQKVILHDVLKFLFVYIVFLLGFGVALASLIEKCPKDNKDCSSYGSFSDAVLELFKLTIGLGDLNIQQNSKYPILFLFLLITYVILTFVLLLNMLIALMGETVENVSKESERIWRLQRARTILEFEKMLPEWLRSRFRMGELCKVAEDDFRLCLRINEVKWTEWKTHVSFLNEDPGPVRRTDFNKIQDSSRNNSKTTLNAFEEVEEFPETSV
In words: 45Calcium uptake assay: inhibition of 2-APB induced cellular uptake of radioactive calcium. Format: cell-based. As to conditions: human TRPV3 expressing CHO cells, 2-APB 500 μM; for inhibition at 1 µM: 1.0 μM compound, read-out: Percentage inhibition at 1.0 μM; for inhibition at 10 µM: 10.0 μM compound, read-out: Percentage inhibition at 10.0 μM. The method, boiled down: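 CHO cells stably expressing human TRPV3 (~50,000/well) were preincubated with compounds for 10 min in medium containing 0.1% BSA, 1.8 mM CaCl2 and 0.5% DMSO. Then 500 μM 2-APB and 5 μCi/ml 45Ca2+ were added for 4 min. Lysate radioactivity was expressed as % of maximal uninhibited response, and IC50 came from nonlinear regression, alongside % inhibition at 1.0 and 10.0 μM.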

As for `COc1cccc(CCCC(=O)N[C@H]2CC3(CCC3)Oc3c(Cl)cccc32)c1OC1CCCC1` [Example 96, (4S)—N-(8-Chloro-3,4-dihydrospiro[chromene-2,1′-cyclobutan]-4-yl)-4-(2-cyclopentyloxy-3-methoxyphenyl)butanamide], the inhibition (commonly how much of the control response was suppressed) at 1 µM was 44.4% and the inhibition at 10 µM is 80.9%.

Take `COc1cccc(CCCC(=O)NC2CC3(CCC3)Oc3c(Cl)cc(F)cc32)c1OC1CCCC1` (centres unmarked) [Example 97, N-(8-Chloro-6-fluoro-3,4-dihydrospiro[chromene-2,1′-cyclobutan]-4-yl)-4-(2-cyclopentyloxy-3-methoxyphenyl)butanamide]: the inhibition at 1 µM stood at 60%; the inhibition at 10 µM stood at 90.3%; the IC50 – broadly, the concentration needed to halve the response being measured – was 1000 to 2000 nM.

In the case of `COc1cccc(CCCC(=O)NC2CC3(CCC3)Oc3c(Cl)cc(Cl)cc32)c1OC1CCCC1` (centres unmarked) [Example 98, N-(6,8-Dichloro-3,4-dihydrospiro[chromene-2,1′-cyclobutan]-4-yl)-4-(2-cyclopentyloxy-3-methoxyphenyl)butanamide], the inhibition at 1 µM worked out at 36.9% and the inhibition at 10 µM stood at 69.5%.

Consider `COc1cccc(CCCC(=O)NC2CC3(CCC3)Oc3cc(OCc4ccccc4)ccc32)c1OC1CCCC1` (centres unmarked) [Example 99, N-(7-Benzyloxy-3,4-dihydrospiro[chromene-2,1′-cyclobutan]-4-yl)-4-(2-cyclopentyloxy-3-methoxyphenyl)butanamide], for which the inhibition at 1 µM is 19.9% and the inhibition at 10 µM is 19.6%.

As to `COc1cccc(CCCC(=O)NC2CC3(CCC3)Oc3cc(O)ccc32)c1OC1CCCC1` (centres unmarked) [Example 100, N-(7-Hydroxy-3,4-dihydrospiro[chromene-2,1′-cyclobutan]-4-yl)-4-(2-cyclopentyloxy-3-methoxyphenyl)butanamide], the inhibition at 1 µM was found to be 19.4% and the inhibition at 10 µM came out at 87%.

As to `COc1ccc(C(=O)CCC(=O)NC2CC3(CCC3)Oc3ccc(Cl)cc32)c2ccccc12` (centres unmarked) [Example 101, N-(6-Chloro-3,4-dihydrospiro[chromene-2,1′-cyclobutan]-4-yl)-4-oxo-4-(4-methoxy-naphthyl)butanamide], the inhibition at 1 µM was found to be 26.5% and the inhibition at 10 µM is 63.2%.

For `COc1ccc(C(O)CCC(=O)NC2CC3(CCC3)Oc3ccc(Cl)cc32)c2ccccc12` (centres unmarked) [Example 102, N-(6-Chloro-3,4-dihydrospiro[chromene-2,1′-cyclobutan]-4-yl)-4-hydroxy-4-(4-methoxynaphthyl)butanamide], the inhibition at 1 µM was determined as 26.6% and the inhibition at 10 µM came out at 42.8%.

With `COc1cccc(CCCC(=O)NC2CC(C)(C)Oc3ccc(Cl)cc32)c1OC1CCCC1` (centres unmarked) [Example 103, N-(6-Chloro-2,2-dimethyl-3,4-dihydro-2H-chromen-4-yl)-4-(2-cyclopentyloxy-3-methoxy)phenylbutanamide], the inhibition at 1 µM is 69.4%, the inhibition at 10 µM stood at 96.4% and the IC50 lay within 500 to 1000 nM.

For `COc1cccc(CCCC(=O)NC2CCSc3ccc(Cl)cc32)c1OC1CCCC1` (centres unmarked) [Example 104, N-(6-chloro-3,4-dihydro-2H-thiochromen-4-yl)-4-(2-cyclopentyloxy-3-methoxyphenyl)-butanamide], the inhibition at 1 µM was found to be 51.3% and the inhibition at 10 µM amounted to 92.5%.

These data come from US8487121B2, “Chromane derivatives as TRPV3 modulators” (Glenmark Pharmaceuticals S.A., priority 2007, dated 2013).
